The values that follow come from ChEMBL document CHEMBL5352441, “Modulation of FLT3-ITD and CDK9 in acute myeloid leukaemia cells by novel proteolysis targeting chimera (PROTAC)” (2022).

In general, GI50 refers to the concentration that inhibits growth by half.

In assay [1] the test system is MV4-11. Put plainly: Downregulation of Myc gene expression in human MV4-11 cells at 0.1 uM incubated for 4 hrs by qRT-PCR analysis. It counts as functional, cell-based.
Assay [2] concerns MV4-11. The assay can be described thus: Downregulation of HOXA9 gene expression in human MV4-11 cells at 0.1 uM incubated for 4 hrs by qRT-PCR analysis. It counts as functional, cell-based. In general terms: Quantitative PCR measures a nucleic acid by following its amplification.
For assay [3], the system named is MV4-11. The assay can be described thus: Downregulation of Bcl-2 gene expression in human MV4-11 cells at 0.1 uM incubated for 4 hrs by qRT-PCR analysis. Format: functional, cell-based.
Assay [4] has as its system MV4-11. Put plainly: Upregulation of FLT3 total protein level in CRBN-deficient human MV4-11 cells at 0.1 uM incubated for 16 hrs by immunoblot analysis. It counts as functional, cell-based. For orientation: A western blot detects proteins with antibodies after separation by electrophoresis.
Assay [5] has as its system MV4-11. The assay can be described thus: Downregulation of MCL-1 gene expression in human MV4-11 cells at 0.1 uM incubated for 4 hrs by qRT-PCR analysis. It counts as functional, cell-based.
In assay [6] the test system is MV4-11. The assay can be described thus: Downregulation of MEISI gene expression in human MV4-11 cells at 0.1 uM incubated for 4 hrs by qRT-PCR analysis. It counts as functional, cell-based.
Assay [7] concerns MV4-11. The assay can be described thus: Downregulation of Myb gene expression in human MV4-11 cells at 0.1 uM incubated for 4 hrs by qRT-PCR analysis. Format: functional, cell-based.
Assay [8] deals with MV4-11. The assay can be described thus: Upregulation of FLT3 total protein level in human MV4-11 cells harboring FLT3-ITD mutation at 0.1 uM incubated for 16 hrs by immunoblot analysis. Format: functional, cell-based.
The target of assay [9] is Receptor-type tyrosine-protein kinase FLT3 (Homo sapiens) (UniProt P36888). Put plainly: Inhibition of FLT3 signalling pathway in human MV4-11 cells assessed as reduction in STAT5 phosphorylation at Y694 residue at 10 uM incubated for 90 mins by immunoblot analysis. Format: cell-based.
Receptor-type tyrosine-protein kinase FLT3 (Homo sapiens), sequence (P36888 whole entry): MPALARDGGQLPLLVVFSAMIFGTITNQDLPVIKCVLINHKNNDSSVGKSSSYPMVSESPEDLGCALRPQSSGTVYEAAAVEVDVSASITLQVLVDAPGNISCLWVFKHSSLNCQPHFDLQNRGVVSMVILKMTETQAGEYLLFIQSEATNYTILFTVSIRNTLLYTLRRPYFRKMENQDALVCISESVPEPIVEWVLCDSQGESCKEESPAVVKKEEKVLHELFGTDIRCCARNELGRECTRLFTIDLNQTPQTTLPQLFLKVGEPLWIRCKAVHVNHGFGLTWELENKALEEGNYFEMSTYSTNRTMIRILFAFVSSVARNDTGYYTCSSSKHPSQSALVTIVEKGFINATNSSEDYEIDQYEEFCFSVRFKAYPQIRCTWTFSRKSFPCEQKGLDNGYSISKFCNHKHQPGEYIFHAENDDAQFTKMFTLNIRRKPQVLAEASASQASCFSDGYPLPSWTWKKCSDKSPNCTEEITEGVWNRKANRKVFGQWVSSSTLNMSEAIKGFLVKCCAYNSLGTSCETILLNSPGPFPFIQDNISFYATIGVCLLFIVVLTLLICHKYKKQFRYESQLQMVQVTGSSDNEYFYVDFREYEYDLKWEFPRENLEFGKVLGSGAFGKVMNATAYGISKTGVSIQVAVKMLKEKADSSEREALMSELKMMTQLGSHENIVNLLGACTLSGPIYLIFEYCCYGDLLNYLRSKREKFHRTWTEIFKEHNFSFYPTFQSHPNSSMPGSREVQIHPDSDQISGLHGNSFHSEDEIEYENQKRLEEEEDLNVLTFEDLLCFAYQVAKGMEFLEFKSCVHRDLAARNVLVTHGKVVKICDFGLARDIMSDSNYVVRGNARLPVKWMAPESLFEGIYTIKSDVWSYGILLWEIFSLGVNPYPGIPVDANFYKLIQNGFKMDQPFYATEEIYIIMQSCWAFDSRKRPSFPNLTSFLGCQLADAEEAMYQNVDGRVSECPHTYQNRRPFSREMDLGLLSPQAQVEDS
For assay [10], the system named is MV4-11. The assay can be described thus: Effect on FLT3 protein level in human MV4-11 cells at 10 uM incubated for 90 mins by immunoblot analysis. Format: functional, cell-based.
For assay [11], the system named is MV4-11. The assay can be described thus: Effect on CDK9 protein level in human MV4-11 cells at 10 uM incubated for 90 mins by immunoblot analysis. Format: functional, cell-based.
Assay [12] addresses Receptor-type tyrosine-protein kinase FLT3 (Homo sapiens) (UniProt P36888). The assay can be described thus: Inhibition of FLT3 signalling pathway in human MV4-11 cells assessed as reduction in ERK1/2 phosphorylation at T202/Y204 residues at 10 uM incubated for 90 mins by immunoblot analysis. Format: cell-based.
The test system of assay [13] is MV4-11. The assay can be described thus: Antiproliferative activity against human MV4-11 cells harboring FLT3-ITD mutation assessed as cell growth inhibition incubated for 72 hrs by resazurin dye based fluorescence analysis. It counts as functional. (In general: The colour change of resazurin is a common sign of viable cells or microbes.)
The test system of another assay is HL-60. The assay can be described thus: Antiproliferative activity against human HL-60 cells assessed as cell growth inhibition incubated for 72 hrs by resazurin dye based fluorescence analysis. It counts as functional.
For a further assay, the system named is RS4-11. The assay can be described thus: Antiproliferative activity against human RS4-11 cells assessed as cell growth inhibition incubated for 72 hrs by resazurin dye based fluorescence analysis. Format: functional.
The target of assay [14] is CDK9/cyclin T1 (Homo sapiens) (UniProt O60563+P50750). The assay can be described thus: Inhibition of human CDK9/Cyclin T1 assessed as residual activity at 100 nM relative to control. It counts as protein-complex assay.
Assay [15] concerns the target Receptor-type tyrosine-protein kinase FLT3 (Homo sapiens) (UniProt P36888). Put plainly: Inhibition of human FLT3 assessed as residual activity at 100 nM relative to control.
Assay [16] concerns MV4-11. The assay can be described thus: Antiproliferative activity against CRBN-deficient human MV4-11 cells assessed as cell growth inhibition incubated for 72 hrs by resazurin dye based fluorescence analysis. Format: functional.
For a further assay, the system named is MOLM-13. The assay can be described thus: Antiproliferative activity against human MOLM-13 cells harboring FLT3-ITD mutation assessed as cell growth inhibition incubated for 72 hrs by resazurin dye based fluorescence analysis. Format: functional.
The subject of the next assay is THP-1. The assay can be described thus: Antiproliferative activity against human THP-1 cells assessed as cell growth inhibition incubated for 72 hrs by resazurin dye based fluorescence analysis. Format: functional.
For another assay, the system named is Kasumi 1. The assay can be described thus: Antiproliferative activity against human Kasumi 1 cells assessed as cell growth inhibition incubated for 72 hrs by resazurin dye based fluorescence analysis. Format: functional.
In another assay the test system is U-937. The assay can be described thus: Antiproliferative activity against human U-937 cells assessed as cell growth inhibition incubated for 72 hrs by resazurin dye based fluorescence analysis. It counts as functional.
In a further assay the test system is CCRF-CEM. The assay can be described thus: Antiproliferative activity against human CEM cells assessed as cell growth inhibition incubated for 72 hrs by resazurin dye based fluorescence analysis. Format: functional.
The target in assay [17] is Cyclin-dependent kinase 9 (Homo sapiens) (UniProt P50750). The assay can be described thus: Induction of CDK9 protein degradation in human MV4-11 cells at 0.2 uM incubated for 90 mins by immunoblot analysis. Format: cell-based.
Cyclin-dependent kinase 9 (Homo sapiens), sequence (P50750 whole entry): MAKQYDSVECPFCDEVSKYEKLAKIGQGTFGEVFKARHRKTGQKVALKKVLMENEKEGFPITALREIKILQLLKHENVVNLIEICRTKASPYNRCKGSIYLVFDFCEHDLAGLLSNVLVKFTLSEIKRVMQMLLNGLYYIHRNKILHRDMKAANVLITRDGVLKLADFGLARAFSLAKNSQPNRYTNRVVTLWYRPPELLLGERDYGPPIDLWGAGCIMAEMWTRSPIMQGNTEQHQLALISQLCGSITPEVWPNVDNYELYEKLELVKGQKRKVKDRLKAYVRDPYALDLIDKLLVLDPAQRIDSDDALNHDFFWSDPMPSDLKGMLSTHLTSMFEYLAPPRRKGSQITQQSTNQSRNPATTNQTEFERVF
In assay [18] the target is Receptor-type tyrosine-protein kinase FLT3 (Homo sapiens) (UniProt P36888). Put plainly: Induction of FLT3 protein degradation in human MV4-11 cells at 0.2 uM incubated for 90 mins by immunoblot analysis. Format: cell-based.

Active and inactive are the calls of the source. The rule behind the calls is not given here. Peptide text beside a SMILES is read from it. * marks the point of attachment. Cbz = O=C(OCc1ccccc1)*

In the case of `CNC(=O)c1cc(Oc2ccc(NC(=O)Nc3ccc(Cl)c(C(F)(F)F)c3)cc2)ccn1`, the outcome in the assay with MV4-11 [1], in the assay on MV4-11 [2], in the assay with MV4-11 [3], with MV4-11 [5], with MV4-11 [6] and with MV4-11 [7] was inactive. The result in the assay on MV4-11 [4] and in the assay with MV4-11 [8] was Active.

For `CC(C)(C)c1cc(NC(=O)Nc2ccc(-c3cn4c(n3)sc3cc(OCCN5CCOCC5)ccc34)cc2)no1`, the result in the assay with MV4-11 [1], in the assay with MV4-11 [2], with MV4-11 [3], with MV4-11 [5], in the assay with MV4-11 [6] and in the assay with MV4-11 [7] was inactive. Moreover, the outcome in the assay with MV4-11 [4] and with MV4-11 [8] was Active.

`O=C1CCC(N2C(=O)c3cccc(O)c3C2=O)C(=O)N1` (stereo not drawn): the inhibition entry in [9] and in assay [12] was “inactive” in each case. The result in the assay on MV4-11 [10] and with MV4-11 [11] was inactive.

As to `CCN1CCN(c2ccc(Nc3nc(NC4CCC(N)CC4)nc4c3ncn4C3CCCC3)cc2)CC1` (stereo not drawn), the GI50 in the assay with MV4-11 [13] turned out to be 9 nM; with HL-60, 1520 nM; with RS4-11 it was 295 nM; in the assay on MV4-11 [16], 8 nM; in the assay on MOLM-13, 8 nM; in the assay on THP-1, 681 nM. Also, the results for the GI50 in the assay on Kasumi 1, with U-937 and with CCRF-CEM were 534 nM, 695 nM and 1280 nM, respectively. Moreover, the Activity is 3% in assay [14] and 2% in assay [15].

For `CC(C)C[C@@H](C=O)NC(=O)[C@H](CC(C)C)NC(=O)[C@H](CC(C)C)NC(=O)OCc1ccccc1` (Cbz-Leu-Leu-Leu-aldehyde), the result in assay [17] and in [18] was inactive.
